In patent US20180071317A1, “USE OF AGENTS THAT ALTER THE PERITUMORAL ENVIRONMENT FOR THE TREATMENT OF CANCER” (SERVICIO ANDALUZ DE SALUD, priority 2011, published 2018):

Experiments:
[1] = test system: fibroblasts (PHF) co-cultured with tumor cells of human colon adenocarcinoma (SW-403); assay: Marker expression (IHC) in PHF co-cultured with SW-403 tumor cells; assay type: cell-based; conditions: co-culture with SW-403; SP 1 μM + antagonist 1 μM; 48 h
Description: All cultures were maintained 48 hours, following which the same cells were included in paraffin blocks for subsequent analysis of the expression of different markers by immunohistochemistry (see Example 1). The primary antibodies used to perform immunohistochemical assays and their concentration are detailed in Example 2. All experiments were carried out sixfold. Analyzed markers in fibroblast cells (stromal cells) were: TGF-α, TGF-β1, TGF-β2, TGF-β3, SPARC, MMP-3, MMP-7, MMP-9, MMP-11, MMP-13 and MMP-14.

[2] = test system: tumors from the tumor cell lines of Table 9; assay: Mean tumor volume in nude mice injected subcutaneously with human tumor cells; conditions: 30 mg/kg/day oral, 7 days
[3] = test system: fibroblasts of tumors produced by tumor cell line of human melanoma (MEL HO); assay: Marker expression (IHC) in fibroblasts of tumor or peritumoral area, mouse model, MEL HO; assay type: in vivo; conditions: MEL HO tumors in mice, 30 mg/kg/day oral, 7 days
Description: (§1) In vitro tests conducted in Example 5 are now carried out in an experimental model in mice in vivo. […] Subsequently, the expression in fibroblasts tumoral and peritumoral area of molecular markers associated with progression and maintenance of tumors: TGF-α, TGF-β1, TGF-β2, TGF-β3, MMP-7, MMP-11, MMP-14 were analyzed by immunohistochemistry.
(§2) Were injected with 2×10^7 cells tumors (corresponding, in each case to each of the tumor types as specified in Table 9) in 200 of PBS subcutaneously μl. […] Mice were randomized into two groups when the tumors reached a volume of 75 mm^3 One group was treated with non-peptide receptor antagonists NK1 and the other with placebo 200μ1. […] Tumors and samples of non-neoplastic stromal areas remote from the tumor were halved, formalin fixed (4%) and then were included in paraffin blocks for analysis by immunohistochemistry.
(§3) The expression on fibroblast cells obtained in the animal model was analyzed by immunohistochemistry, of the above markers: TGF-α, TGF-β1, TGF-β2, TGF-β3, MMP-7, MMP-1 1, MMP-14MP-14. Tables 32 to 35 depict the type of label used and the average percentage of fibroblasts present in non-tumor areas, tumor and peritumoral (±SD) which were expressing the marker shown in each of the tumor types developed from of the different cell lines used. This process was realized in mice treated with non-peptide antagonists of NK1 receptor and in untreated animals (control).

[4] = test system: fibroblasts (PHF) co-cultivated with tumor cell lymphoblastic leukemia B (SDI); assay: Marker expression (IHC) in PHF co-cultured with SDI tumor cells; assay type: cell-based, human; conditions: PHF co-cultivated with SDI + SP + NK1 antagonist
Description: (§4) All cultures were maintained 48 hours, following which the same cells were included in paraffin blocks for subsequent analysis of the expression of different markers by immunohistochemistry (see Example 1). […] All experiments were carried out sixfold. Analyzed markers in fibroblast cells (stromal cells) were: TGF-α, TGF-β1, TGF-β2, TGF-β3, SPARC, MMP-3, MMP-7, MMP-9, MMP-11, MMP-13 and MMP-14.

[5] = test system: fibroblasts of tumors produced by human glioma tumor line (GAMG); assay: Marker expression (IHC) in fibroblasts of tumor or peritumoral area, mouse model, GAMG; assay type: in vivo; conditions: GAMG tumors in mice, 30 mg/kg/day oral, 7 days
Description: as §1, §2, §3

[6] = test system: fibroblasts (PHF) co-cultured with tumor cells of human Edwing sarcoma (MHH-ES-1); assay: Marker expression (IHC) in PHF co-cultured with MHH-ES-1 tumor cells; assay type: cell-based; conditions: PHF co-cultured with MHH-ES-1 + SP + NK1 antagonist
Description: as §4

[7] = test system: fibroblasts (PHF) co-cultured with tumor cells of lung carcinoma (A-427); assay: Marker expression (IHC) in PHF co-cultured with A-427 tumor cells; assay type: cell-based, human; conditions: co-culture with A-427 lung carcinoma; SP 1 μM + antagonist 1 μM; 48 h;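 note: cultures grown in human blood plasma from a healthy donor, value is the percentage of fibroblasts positive for each marker, six replicates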
Description: as §4

[8] = test system: fibroblasts (PHF) co-cultured with human neuroblastoma tumor cells (KELLY); assay: Marker expression (IHC) in PHF co-cultured with KELLY tumor cells; assay type: cell-based; conditions: PHF co-cultured with KELLY + SP + NK1 antagonist;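 note: Co-cultures grown on healthy-donor human blood plasma, run in six replicates, value is percentage of fibroblasts positive for each marker, compared with fibroblasts cultured alone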
Description: as §4

## Cc1cc(F)ccc1[C@H]1CNCCN1C(=O)N(C)[C@H](C)c1cc(C(F)(F)F)cc(C(F)(F)F)c1 [Vestipitant]
[1]
  PHF cells expressing MMP-3: 0%
  PHF cells expressing MMP-7: 0%
  PHF cells expressing MMP-9: 0%
  PHF cells expressing MMP-11: 0%
  PHF cells expressing MMP-13: 0%
  PHF cells expressing MMP-14: 0%
  PHF cells expressing SPARC: 0%
  PHF cells expressing TGF-α: 0%
  PHF cells expressing TGF-β1: 0%
  PHF cells expressing TGF-β2: 0%
  PHF cells expressing TGF-β3: 0%
[2]; B lymphoblastic leukemia (peripheral human B lymphoblastoid cells) SD1
  Mean tumor volume: 112 ± 8
[2]; Carcinoma of human non-small cell lung COR-L23
  Mean tumor volume: 111 ± 3
[2]; Carcinoma of human non-small cell lung H-1963
  Mean tumor volume: 101 ± 6
[2]; Carcinoma of human non-small cell lung HCC-44
  Mean tumor volume: 100 ± 4
[2]; Carcinoma of human small cell lung H-209
  Mean tumor volume: 113 ± 5
[2]; Carcinoma of human urinary bladder 5637
  Mean tumor volume: 112 ± 3
[2]; Human B lymphoma BC-1
  Mean tumor volume: 101 ± 9
[2]; Human Burkitt lymphoma CA-46
  Mean tumor volume: 100 ± 19
[2]; Human Fibrosarcoma HT-1080
  Mean tumor volume: 112 ± 4
[2]; Human Hodgkin lymphoma KM-H2
  Mean tumor volume: 99 ± 8
[2]; Human Rhabdomyosarcoma A-204
  Mean tumor volume: 97 ± 9
[2]; Human T-cell leukemia/NK YT
  Mean tumor volume: 101 ± 3
[2]; Human T-lymphoma DERL human Hodgkin 7Linfoma KM-H2
  Mean tumor volume: 90 ± 9
[2]; Human breast adenocarcinoma humano MCF-7
  Mean tumor volume: 78 ± 7
[2]; Human breast carcinoma MDA-MB-468
  Mean tumor volume: 84 ± 7
[2]; Human breast carcinoma MT-3
  Mean tumor volume: 78 ± 8
[2]; Human choriocarcinoma AC-1M32
  Mean tumor volume: 88 ± 8
[2]; Human colon carcinoma SW-403
  Mean tumor volume: 78 ± 2
[2]; Human endometrial carcinoma AN3-CA
  Mean tumor volume: 89 ± 1
[2]; Human endometrial stromal sarcoma ESS-1
  Mean tumor volume: 99 ± 3
[2]; Human folicular thyroid carcinoma TT2609-C02
  Mean tumor volume: 100 ± 4
[2]; Human gastric adenocarcinoma 23132/87
  Mean tumor volume: 63 ± 8
[2]; Human glioma GAMG
  Mean tumor volume: 101 ± 4
[2]; Human lung carcinoma A-427
  Mean tumor volume: 98 ± 10
[2]; Human lung carcinoma DV-90
  Mean tumor volume: 136 ± 10
[2]; Human lymphoblastic leukemia T BE-13
  Mean tumor volume: 111 ± 4
[2]; Human malignant fibrous histiocytoma U-2197
  Mean tumor volume: 95 ± 8
[2]; Human melanoma MEL HO
  Mean tumor volume: 102 ± 4
[2]; Human multiple myeloma COLO-677
  Mean tumor volume: 101 ± 4
[2]; Human neuroblastoma KELLY
  Mean tumor volume: 121 ± 4
[2]; Human neuroblastoma bone marrow SKN-BE 2
  Mean tumor volume: 101 ± 7
[2]; Human osteosarcoma CAL-72
  Mean tumor volume: 104 ± 9
[2]; Human ovarian adenocarcinoma EFO-27
  Mean tumor volume: 63 ± 7
[2]; Human ovarian carcinoma COLO-704
  Mean tumor volume: 78 ± 8
[2]; Human pancretic adenocarcinoma CAPAN-1
  Mean tumor volume: 85 ± 8
[2]; Human pancretic adenocarcinoma PA-TU 8902
  Mean tumor volume: 91 ± 6
[2]; Human papillary thyroid carcinoma metastasizing B-CPAP
  Mean tumor volume: 102 ± 2
[2]; Human prostate carcinoma 22RV1
  Mean tumor volume: 98 ± 2
[2]; Human retinoblastoma WERI-Rb-1
  Mean tumor volume: 112 ± 8
[2]; Human thyroid carcinoma 8505C
  Mean tumor volume: 98 ± 9
[2]; Human uterine cervix carcinoma KB
  Mean tumor volume: 89 ± 1
[2]; Melanoma humano, metástasis en ganglio linfático COLO 858
  Mean tumor volume: 110 ± 4
[2]; Sarcoma human Edwing MHH-ES-1
  Mean tumor volume: 115 ± 3
[2]; Transitional Carcinoma of human urinary bladder RT-4
  Mean tumor volume: 120 ± 3
[3]
  fibroblasts expressing MMP-7: 0%
  fibroblasts expressing MMP-11: 0%
  fibroblasts expressing MMP-14: 0%
  fibroblasts expressing TGF-α: 0%
  fibroblasts expressing TGF-β 1: 0%
  fibroblasts expressing TGF-β 2: 0%
  fibroblasts expressing TGF-β 3: 0%
[4]
  cells expressing MMP-3: 0%
  cells expressing MMP-7: 0%
  cells expressing MMP-9: 0%
  cells expressing MMP-11: 0%
  cells expressing MMP-13: 0%
  cells expressing MMP-14: 0%
  cells expressing SPARC: 0%
  cells expressing TGF-α: 0%
  cells expressing TGF-β1: 0%
  cells expressing TGF-β2: 0%
  cells expressing TGF-β3: 0%
[5]
  fibroblasts expressing MMP-7: 0%
  fibroblasts expressing MMP-11: 0%
  fibroblasts expressing MMP-14: 0%
  fibroblasts expressing TGF-α: 0%
  fibroblasts expressing TGF-β 1: 0%
  fibroblasts expressing TGF-β 2: 0%
  fibroblasts expressing TGF-β 3: 0%
[6]
  cells expressing MMP-3: 0%
  cells expressing MMP-7: 0%
  cells expressing MMP-9: 0%
  cells expressing MMP-11: 0%
  cells expressing MMP-13: 0%
  cells expressing MMP-14: 0%
  cells expressing SPARC: 0%
  cells expressing TGF-α: 0%
  cells expressing TGF-β1: 0%
  cells expressing TGF-β2: 0%
  cells expressing TGF-β3: 0%
[7]
  PHF cells expressing MMP-3: 0%
  PHF cells expressing MMP-7: 0%
  PHF cells expressing MMP-9: 0%
  PHF cells expressing MMP-11: 0%
  PHF cells expressing MMP-13: 0%
  PHF cells expressing MMP-14: 0%
  PHF cells expressing SPARC: 0%
  PHF cells expressing TGF-α: 0%
  PHF cells expressing TGF-β1: 0%
  PHF cells expressing TGF-β2: 0%
  PHF cells expressing TGF-β3: 0%
[8]
  cells expressing MMP-3: 0%
  cells expressing MMP-7: 0%
  cells expressing MMP-9: 0%
  cells expressing MMP-11: 0%
  cells expressing MMP-13: 0%
  cells expressing MMP-14: 0%
  cells expressing SPARC: 0%
  cells expressing TGF-α: 0%
  cells expressing TGF-β1: 0%
  cells expressing TGF-β2: 0%
  cells expressing TGF-β3: 0%
